From patent publication US11866431B2, “Bicyclic compounds” (Vivace Therapeutics, Inc., priority 2018, dated 2024)

Tested on: 8XTBD luciferase reporter (YAP reporter) in HEK293T cells
Experiment: YAP Reporter Assay
Assay type: cell-based
Conditions: Homo sapiens, HEK-293T; HEK293T cells stably transfected with 8XTBD luciferase reporter and pRLTK; 24-hr incubation; top concentration 3 μM; read-out: Firefly Luciferase IC50
Procedure, shortened: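 HEK293T cells stably carrying 8XTBD firefly luciferase and TK-renilla (3×10^3 cells/well) dosed 3-4 h after plating with compounds from 3 μM final, 1:3 dilution, 10 points, quadruplicates. After 24 h at 37° C, Dual-Glo readings gave IC50 and maximum inhibition reported separately for firefly and renilla.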

Row | Structure (SMILES) | IC50 [nM]
1 | [N-]=[N+]=NCCNC(=O)c1ccc2c(-c3ccc(C(F)(F)F)cc3)cccc2c1 [Compound 261, N-(2-azidoethyl)-5-(4-(trifluoromethyl)phenyl)-2-naphthamide] | < 100
2 | C[C@H](NC(=O)c1cnc2c(-c3ccc(C(F)(F)F)cc3)cccc2n1)c1ccccn1 [Compound 266, (S)—N-(1-(pyridin-2-yl)ethyl)-5-(4-(trifluoromethyl)phenyl)quinoxaline-2-carboxamide] | 100 to 1000
3 | C[C@H](CN(C)C)NC(=O)c1ccc2c(-c3ccc(C(F)(F)F)cc3)cccc2c1 [Compound 65, (R)—N-(1-(dimethylamino)propan-2-yl)-5-(4-(trifluoromethyl)phenyl)-2-naphthamide] | 1000 to 3000
4 | O=C(O)c1ccc2c(-c3ccc(C(F)(F)F)s3)cccc2c1 [Compound 332, 5-[5-(trifluoromethyl)-2-thienyl]naphthalene-2-carboxylic acid] | < 100
5 | CC(=O)NCCOCCOCCNC(=O)c1ccc2c(-c3ccc(C(F)(F)F)cc3)cccc2c1 [Compound 40, N-(2-(2-(2-acetamidoethoxy)ethoxy)ethyl)-5-(4-(trifluoromethyl)phenyl)-2-naphthamide] | < 100
6 | CC(C)NC(=O)c1ccc2c(-c3ccc(C(F)(F)F)cc3)ccnc2c1 [Compound 7, N-isopropyl-4-[4-(trifluoromethyl)phenyl]quinoline-7-carboxamide] | 100 to 1000
7 | CC(C)NC(=O)c1ccc2c(-c3ccc(C(F)(F)F)cc3)ccc(N)c2c1 [Compound 16, 8-amino-N-isopropyl-5-(4-(trifluoromethyl)phenyl)-2-naphthamide] | < 100
8 | CC(C)NC(=O)c1ccc2c(-c3ccc(C(F)(F)F)cc3)cc([S+](C)[O-])cc2c1 (stereo not shown) [Compound 45, N-isopropyl-7-methylsulfinyl-5-[4-(trifluoromethyl)phenyl]naphthalene-2-carboxamide] | 100 to 1000
9 | C[C@@H](NC(=O)c1ccc2c(-c3ccc(C(F)(F)F)cc3)cccc2c1)c1cccc2cn[nH]c12 [Compound 182, N-[(1R)-1-(1H-indazol-7-yl)ethyl]-5-[4-(trifluoromethyl)phenyl]naphthalene-2-carboxamide] | < 100
10 | CS(=O)(=O)NC(=O)c1cnc2c(-c3ccc(C(F)(F)F)cc3)cc(F)c(F)c2c1 [Compound 73, 5,6-Difluoro-N-(methylsulfonyl)-8-(4-(trifluoromethyl)phenyl)quinoline-3-carboxamide] | 100 to 1000
11 | C[C@H](NC(=O)c1ccc2c(-c3ccc(C(F)(F)F)cc3)cccc2c1)C1CCC1 [Compound 251, (S)—N-(1-cyclobutylethyl)-5-(4-(trifluoromethyl)phenyl)-2-naphthamide] | 100 to 1000
12 | CC(C)NC(=O)c1ccc2c(-c3ccc(C(F)(F)F)cc3)ccc(I)c2c1 [Compound 88, 8-iodo-N-isopropyl-5-(4-(trifluoromethyl)phenyl)-2-naphthamide] | 100 to 1000
13 | CC(=O)Nc1cccc(CNC(=O)c2ccc3c(-c4ccc(C(F)(F)F)cc4)cccc3c2)c1 [Compound 237, N-(3-acetamidobenzyl)-5-(4-(trifluoromethyl)phenyl)-2-naphthamide] | < 100
14 | COc1cc(-c2ccc(C(F)(F)F)cc2)c2ccc(C(=O)N[C@@H](C)c3ccccn3)cc2c1 [Compound 292, (S)-7-Methoxy-N-(1-(pyridin-2-yl)ethyl)-5-(4-(trifluoromethyl)phenyl)-2-naphthamide] | < 100
15 | COc1cc(-c2ccc(C(F)(F)F)cc2)c2ccc(C(=O)NC(CO)c3ccccn3)cc2c1 (stereo not shown) [Compound 291, N-(2-Hydroxy-1-(pyridin-2-yl)ethyl)-7-methoxy-5-(4-(trifluoromethyl)phenyl)-2-naphthamide] | < 100
16 | CC(C)NC(=O)c1ccc2c(-c3ccc(C(F)(F)F)cc3)cccc2n1 [Compound 248, N-isopropyl-5-(4-(trifluoromethyl)phenyl)quinoline-2-carboxamide] | 100 to 1000
17 | C#C[C@H](C)NC(=O)c1ccc2c(-c3ccc(C(F)(F)F)cc3)cccc2c1 [Compound 274, (S)—N-(but-3-yn-2-yl)-5-(4-(trifluoromethyl)phenyl)-2-naphthamide] | < 100
18 | CC(C)NC(=O)c1cnc2c(-c3ccc(C(F)(F)F)cc3)cc(Cl)c(Cl)c2c1 [Compound 94, 5,6-Dichloro-N-isopropyl-8-(4-(trifluoromethyl)phenyl)quinoline-3-carboxamide] | < 100
19 | CC#C[C@@H](C)NC(=O)c1ccc2c(-c3ccc(C(F)(F)F)cc3)cccc2c1 [Compound 273, (R)—N-(pent-3-yn-2-yl)-5-(4-(trifluoromethyl)phenyl)-2-naphthamide] | < 100
20 | O=C(NC1CC1)c1ccc2c(-c3ccc(C(F)(F)F)cc3)cccc2c1 [Compound 55, N-cyclopropyl-5-(4-(trifluoromethyl)phenyl)-2-naphthamide] | < 100

Row | Structure (SMILES) | IC50 [nM]
21 | C[C@H](NC(=O)c1ccc2c(-c3ccc(C(F)(F)F)cc3)cccc2c1)C1CC1 [Compound 289, (S)—N-(1-cyclopropylethyl)-5-(4-(trifluoromethyl)phenyl)-2-naphthamide] | < 100
22 | O=C(O)c1ccc2c(-c3ccc(C(F)(F)F)cc3)cccc2c1 [Compound 330, 5-[4-(trifluoromethyl)phenyl]naphthalene-2-carboxylic Acid] | < 100
23 | CC(C)NC(=O)c1ccc2c(-c3ccc(C(F)(F)F)cc3)cc3nncn3c2c1 [Compound 307, N-Isopropyl-5-(4-(trifluoromethyl)phenyl)-[1,2,4]triazolo[4,3-a]quinoline-8-carboxamide] | 100 to 1000
24 | N#C/C=C/CCCNC(=O)c1ccc2c(-c3ccc(C(F)(F)F)cc3)cccc2c1 [Compound 227, N-[(E)-5-cyanopent-4-enyl]-5-[4-(trifluoromethyl)phenyl]naphthalene-2-carboxamide] | < 100
25 | CC(C)NC(=O)c1ccc2c(-c3ccc(C(F)(F)F)cc3)cc(N)c(O)c2c1 [Compound 95, 7-amino-8-hydroxy-N-isopropyl-5-(4-(trifluoromethyl)phenyl)-2-naphthamide] | 100 to 1000
26 | COC(=O)c1ccc2c(-c3ccc(C(F)(F)F)cc3)nccc2c1 [Compound 9, Methyl 1-[4-(trifluoromethyl)phenyl]isoquinoline-6-carboxylate] | 100 to 1000
27 | C[C@H](NC(=O)c1ccc2c(-c3ccc(C(F)(F)F)cc3)cccc2c1)c1ccccn1 [Compound 90, (S)—N-(1-(pyridin-2-yl)ethyl)-5-(4-(trifluoromethyl)phenyl)-2-naphthamide] | < 100
28 | O=C(NC1(c2ccccc2)COC1)c1ccc2c(-c3ccc(C(F)(F)F)cc3)cccc2c1 [Compound 288, N-(3-phenyloxetan-3-yl)-5-(4-(trifluoromethyl)phenyl)-2-naphthamide] | < 100
29 | C[C@H](NC(=O)c1ccc2c(-c3ccc(C(F)(F)F)cc3)cccc2c1)c1nccn1C [Compound 253, (S)—N-(1-(1-methyl-1H-imidazol-2-yl)ethyl)-5-(4-(trifluoromethyl)phenyl)-2-naphthamide] | 1000 to 3000
30 | O=C(NCCCCCl)c1ccc2c(-c3ccc(C(F)(F)F)cc3)cccc2c1 [Compound 249, N-(4-chlorobutyl)-5-(4-(trifluoromethyl)phenyl)-2-naphthamide] | 100 to 1000
31 | C[C@@H](CN(C)C)NC(=O)c1ccc2c(-c3ccc(C(F)(F)F)cc3)cccc2c1 [Compound 64, (S)—N-(1-(dimethylamino)propan-2-yl)-5-(4-(trifluoromethyl)phenyl)-2-naphthamide] | 1000 to 3000
32 | NS(=O)(=O)NC(=O)c1ccc2c(-c3ccc(C(F)(F)F)cc3)cccc2c1 [Compound 29, N-sulfamoyl-5-(4-(trifluoromethyl)phenyl)-2-naphthamide] | 100 to 1000
33 | CC(C)NC(=O)c1ccc2c(-c3ccc(C(F)(F)F)cc3)ccc(S(C)(=O)=O)c2c1 [Compound 28, N-isopropyl-8-methylsulfonyl-5-[4-(trifluoromethyl)phenyl]naphthalene-2-carboxamide] | 1000 to 3000
34 | COc1cc(-c2ccc(C(F)(F)F)cc2)c2ncc(C(=O)N[C@H](C)CO)cc2c1 [Compound 98, N-[(1R)-2-hydroxy-1-methyl-ethyl]-6-methoxy-8-[4-(trifluoromethyl)phenyl]quinoline-3-carboxamide] | < 100
35 | C[C@@H](NC(=O)c1ccc2c(-c3ccc(C(F)(F)F)cc3)cccc2c1)C1CN(CCO)C1 [Compound 133, (R)—N-(1-(1-(2-hydroxyethyl)azetidin-3-yl)ethyl)-5-(4-(trifluoromethyl)phenyl)-2-naphthamide] | 100 to 1000
36 | COc1cc(-c2ccc(C(F)(F)F)cc2F)c2ncc(C(=O)O)cc2c1 [Compound 321, 8-(2-fluoro-4-(trifluoromethyl)phenyl)-6-methoxyquinoline-3-carboxylic Acid] | < 100
37 | COc1cc(-c2ccc(C(F)(F)F)cc2)c2ncc(C(=O)N[C@@H](C)c3ccccn3)cc2c1 [Compound 108, 6-methoxy-N-[(1S)-1-(2-pyridyl)ethyl]-8-[4-(trifluoromethyl)phenyl]quinoline-3-carboxamide] | < 100
38 | CC(C)NC(=O)c1cnc2c(-c3ccc(C(F)(F)F)cc3)cccc2c1 [Compound 4, N-isopropyl-8-(4-(trifluoromethyl)phenyl)quinoline-3-carboxamide] | < 100
39 | C[C@@H](NC(=O)c1ccc2c(-c3ccc(C(F)(F)F)cc3)cccc2c1)c1cccc2ccsc12 [Compound 176, N-[(1R)-1-(benzothiophen-7-yl)ethyl]-5-[4-(trifluoromethyl)phenyl]naphthalene-2-carboxamide] | 100 to 1000
40 | C[C@H](NC(=O)c1cnc2c(-c3ccc(C(F)(F)F)cc3)cccc2c1)c1ccccn1 [Compound 103, (S)—N-(1-(pyridin-2-yl)ethyl)-8-(4-(trifluoromethyl)phenyl)quinoline-3-carboxamide] | < 100
